The term IC50 denotes the point on the concentration scale where inhibition reaches its midpoint.

Here are results for 58 molecules from publication PMC3865801 (Journal of Medicinal Chemistry, 2013).

The structures appear in SMILES notation. “Also recorded” adds a separate entry of the source. Bounds are passed on as bounds.

In the first assay the target is T1, purified recombinant perforin (Mus musculus, UniProt P10820).
T1 sequence (P10820 21-554): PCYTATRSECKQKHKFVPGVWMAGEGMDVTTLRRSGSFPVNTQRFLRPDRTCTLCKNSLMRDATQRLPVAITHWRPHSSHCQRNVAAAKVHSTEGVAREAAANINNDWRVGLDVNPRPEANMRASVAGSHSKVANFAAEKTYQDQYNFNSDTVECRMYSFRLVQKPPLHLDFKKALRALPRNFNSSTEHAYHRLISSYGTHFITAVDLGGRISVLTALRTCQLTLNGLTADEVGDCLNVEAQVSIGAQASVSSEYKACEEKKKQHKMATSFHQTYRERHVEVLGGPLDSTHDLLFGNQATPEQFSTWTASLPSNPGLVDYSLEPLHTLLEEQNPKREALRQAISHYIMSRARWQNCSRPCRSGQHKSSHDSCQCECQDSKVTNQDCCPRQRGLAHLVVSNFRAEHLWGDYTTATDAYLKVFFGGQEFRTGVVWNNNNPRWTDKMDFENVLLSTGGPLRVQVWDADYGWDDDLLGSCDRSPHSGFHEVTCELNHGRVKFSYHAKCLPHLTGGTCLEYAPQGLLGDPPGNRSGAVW
The assay is described as follows: cell-based. Type of assay: cell-based. Conditions: lysis of Jurkat cells by purified recombinant perforin, 51Cr release, 0.1% BSA; average of at least three determinations.
Experimental: The ability of the compounds to inhibit the lysis of nucleated (Jurkat T lymphoma) cells in the presence of 0.1% BSA was measured by release of ^51Cr label. Jurkat target cells were labeled by incubation in medium with 100 μCi ^51Cr for 1 h. The cells were then washed three times to remove unincorporated isotope and resuspended at 1 × 10^5 cells per milliliter in RPMI buffer supplemented with 0.1% BSA. […] Each data point was performed in triplicate, and an IC50 was calculated from the range of concentrations described above.
As to `O=C1NC(=S)N/C1=C/c1ccc(-c2ccccc2)s1` [compound 43], the “inhibition of Jurkat cell lysis, IC50” value is listed as “no detectable activity”.
Still for that read-out and setting: for `O=C1NC(=S)N/C1=C/c1ccc(-c2ccc3c(c2)CN(CCN2CCOCC2)C3=O)s1` [compound 130, (E,Z)-2-(2-Morpholinoethyl)-5-(5-((5-oxo-2-thioxoimidazolidin-4-ylidene)methyl)thiophen-2-yl)isoindolin-1-one] the value was “not reproducible; also recorded: variable”.

Still in this assay, the particulars now being: lysis of Jurkat cells by purified recombinant perforin, 51Cr release, 0.1% BSA; average of at least three determinations; read-out: inhibition of Jurkat cell lysis, IC50.
In the case of `O=C1NC(=S)N/C1=C/c1ccc(-c2ccccc2)s1` [compound 43], the IC50 was more than 20 µM.
Same read-out and setting: then `O=C1NC(=S)N/C1=C/c1ccc(-c2ccccc2Cl)s1` [compound 44], with more than 20 µM; and `O=C1NC(=S)N/C1=C/c1ccc(-c2cccc(Cl)c2)s1` [compound 45], with 7.19 µM.
In the case of `O=C1NC(=S)N/C1=C/c1ccc(-c2ccc(Cl)cc2)s1` [compound 46], the IC50 stood at 5.22 µM.
Consider `O=C1NC(=S)N/C1=C/c1ccc(-c2cccc(F)c2)s1` [compound 47], for which the IC50 came out at 10.8 µM.
Consider `O=C1NC(=S)N/C1=C/c1ccc(-c2ccc(F)cc2)s1` [compound 48], for which the IC50 was 6.69 µM.
The same measure, in the same setting: then `O=C1NC(=S)N/C1=C/c1ccc(-c2ccc(F)c(F)c2)s1` [compound 49], with 4.59 µM.
The same measure, in the same setting: then `O=C1NC(=S)N/C1=C/c1ccc(-c2cccc(C(F)(F)F)c2)s1` [compound 50], with 5.66 µM; and `O=C1NC(=S)N/C1=C/c1ccc(-c2ccc(C(F)(F)F)cc2)s1` [compound 51], with 4.66 µM.
Take `N#Cc1cccc(-c2ccc(/C=C3/NC(=S)NC3=O)s2)c1` [compound 52]: the IC50 was 9.68 µM.
Turning to `O=C1NC(=S)N/C1=C/c1ccc(-c2ccc(O)cc2)s1` [compound 53], the IC50 was 7.72 µM.
Still for that read-out and setting: then `O=C1NC(=S)N/C1=C/c1ccc(-c2ccc(Cl)c(C(F)(F)F)c2)s1` [compound 54], with 3.09 µM; and `O=C1NC(=S)N/C1=C/c1ccc(-c2ccc(Br)cc2)s1` [compound 55], with 1.69 µM.
The same measure, in the same setting: for `CSc1ccc(-c2ccc(/C=C3/NC(=S)NC3=O)s2)cc1` [compound 56] the value was 1.15 µM.
The same measure, in the same setting: then `CC(=O)c1ccc(-c2ccc(/C=C3/NC(=S)NC3=O)s2)cc1` [compound 57], with 1.67 µM; and `CC(=O)OCc1ccc(-c2ccc(/C=C3/NC(=S)NC3=O)s2)cc1` [compound 58, (E,Z)-4-(5-((5-Oxo-2-thioxoimidazolidin-4-ylidene)methyl)thiophen-2-yl)benzyl Acetate], with 3.04 µM.
For `COC(=O)c1ccc(-c2ccc(/C=C3/NC(=S)NC3=O)s2)cc1` [compound 59], the IC50 came out at 1.62 µM.
The same measure, in the same setting: for `NC(=O)c1cccc(-c2ccc(/C=C3/NC(=S)NC3=O)s2)c1` [compound 60] the value was 0.79 µM.
Same read-out and setting: then `NC(=O)c1ccc(-c2ccc(/C=C3/NC(=S)NC3=O)s2)cc1` [compound 61], with 1.56 µM.
Same read-out and setting: then `COC(=O)c1ccc(-c2ccc(/C=C3/NC(=S)NC3=O)s2)cc1C` [compound 62], with 3.03 µM; and `CS(=O)(=O)c1ccc(-c2ccc(/C=C3/NC(=S)NC3=O)s2)cc1` [compound 63], with 13.8 µM; and `CS(=O)(=O)Nc1ccc(-c2ccc(/C=C3/NC(=S)NC3=O)s2)cc1` [compound 64], with 7.7 µM.
`O=C1NC(=S)N/C1=C/c1ccc(-c2cccnc2)s1` [compound 65]: the IC50 was found to be 12.9 µM.
Same read-out and setting: for `O=C1NC(=S)N/C1=C/c1ccc(-c2ccncc2)s1` [compound 66] the value was 10.1 µM.
Same read-out and setting: then `CNC(=O)c1ccc(-c2ccc(/C=C3/NC(=S)NC3=O)s2)cc1` [compound 67, (E,Z)-N-Methyl-4-(5-((5-oxo-2-thioxoimidazolidin-4-ylidene)methyl)thiophen-2-yl)benzamide], with 4.53 µM.
On to `CN(C)C(=O)c1ccc(-c2ccc(/C=C3/NC(=S)NC3=O)s2)cc1` [compound 68], for which the IC50 amounted to 6.93 µM.
On the same count and under the same terms, then `O=C1NC(=S)N/C1=C/c1ccc(-c2ccc(C(=O)N3CCOCC3)cc2)s1` [compound 69], with more than 20 µM; and `O=C1NC(=S)N/C1=C/c1ccc(-c2ccc(C(=O)NCCN3CCOCC3)cc2)s1` [compound 70], with more than 20 µM; and `O=C1NC(=S)N/C1=C/c1ccc(-c2ccc(C(=O)NCCCN3CCOCC3)cc2)s1` [compound 71], with 8.13 µM.
On the same count and under the same terms, for `O=C1NC(=S)N/C1=C/c1ccc(-c2ccc(C(=O)NCCO)cc2)s1` [compound 72] the value was 3.64 µM.
Still for that read-out and setting: then `O=C1NC(=S)N/C1=C/c1ccc(-c2ccc(C(=O)NCCCO)cc2)s1` [compound 73], with 4.35 µM; and `CC(O)CNC(=O)c1ccc(-c2ccc(/C=C3/NC(=S)NC3=O)s2)cc1` (centres unmarked) [compound 74], with 6.5 µM.
For `O=C1NC(=S)N/C1=C/c1ccc(-c2ccc(C(=O)NCC(O)CO)cc2)s1` (centres unmarked) [compound 75], the IC50 was 2.44 µM.
Same read-out and setting: for `CCN1Cc2cc(-c3ccc(/C=C4/NC(=S)NC4=O)s3)ccc2C1=O` [compound 120] the value was 0.6 µM.
For the molecule `CCCN1Cc2cc(-c3ccc(/C=C4/NC(=S)NC4=O)s3)ccc2C1=O` [compound 121], the IC50 was found to be 1.52 µM.
Same read-out and setting: then `CCCCN1Cc2cc(-c3ccc(/C=C4/NC(=S)NC4=O)s3)ccc2C1=O` [compound 122], with 1.18 µM; and `CC(C)N1Cc2cc(-c3ccc(/C=C4/NC(=S)NC4=O)s3)ccc2C1=O` [compound 123], with 4.42 µM.
Same read-out and setting: then `CC(=O)OCCN1Cc2cc(-c3ccc(/C=C4/NC(=S)NC4=O)s3)ccc2C1=O` [compound 124, (E,Z)-2-(1-Oxo-5-(5-((5-oxo-2-thioxoimidazolidin-4-ylidene)methyl)thiophen-2-yl)isoindolin-2-yl)ethyl Acetate], with 1.17 µM.
For the molecule `O=C1NC(=S)N/C1=C/c1ccc(-c2ccc3c(c2)CN(CC(O)CO)C3=O)s1` (centres unmarked) [compound 127], the IC50 stood at 1.26 µM.
Same read-out and setting: for `CC(=O)N1Cc2cc(-c3ccc(/C=C4/NC(=S)NC4=O)s3)ccc2C1=O` [compound 128] the value was 0.93 µM.
For the molecule `CN(C)CCCN1Cc2cc(-c3ccc(/C=C4/NC(=S)NC4=O)s3)ccc2C1=O` [compound 131, (E,Z)-2-(3-(Dimethylamino)propyl)-5-(5-((5-oxo-2-thioxoimidazolidin-4-ylidene)methyl)thiophen-2-yl)isoindolin-1-one], the IC50 was more than 20 µM.
In the case of `O=C1NC(=S)N/C1=C/c1ccc(-c2ccc3c(c2)CN(CCCN2CCCCC2)C3=O)s1` [compound 132], the IC50 is 11.8 µM.
Same read-out and setting: then `CN1CCN(CCCN2Cc3cc(-c4ccc(/C=C5/NC(=S)NC5=O)s4)ccc3C2=O)CC1` [compound 133], with more than 20 µM.
On the same count and under the same terms, then `O=C1NC(=S)N/C1=C/c1ccc(-c2ccc3c(c2)CN(CCCN2CCCC2)C3=O)s1` [compound 134], with 8.93 µM; and `O=C1NC(=S)N/C1=C/c1ccc(-c2ccc3c(c2)C(=O)NC3)s1` [compound 165], with 1.38 µM.
For the molecule `CN1Cc2ccc(-c3ccc(/C=C4/NC(=S)NC4=O)s3)cc2C1=O` [compound 166, (E,Z)-2-Methyl-6-(5-((5-oxo-2-thioxoimidazolidin-4-ylidene)methyl)thiophen-2-yl)isoindolin-1-one], the IC50 was determined as 1.89 µM.
On the same count and under the same terms, for `CN1CCc2cc(-c3ccc(/C=C4/NC(=S)NC4=O)s3)ccc2C1=O` [compound 169] the value was 2.33 µM.
On the same count and under the same terms, for `CN1CCc2ccc(-c3ccc(/C=C4/NC(=S)NC4=O)s3)cc2C1=O` [compound 170] the value was 4.76 µM; for `CC(=O)c1cn(C)c2ccc(-c3ccc(/C=C4\NC(=S)NC4=O)s3)cc12` [compound 178], 5.3 µM; for `O=C1NC(=S)N/C1=C\c1cc(-c2ccc3c(c2)CNC3=O)cs1` [compound 204], 3 µM.
Still for that read-out and setting: for `O=C1NC(=S)N/C1=C/c1ccc(-c2ccc3c(c2)CNC3=O)cc1` [compound 205] the value was 5.55 µM.
For `O=C1NC(=S)N/C1=C\c1cccc(-c2ccc3c(c2)CNC3=O)c1` [compound 206], the IC50 turned out to be 3.44 µM.
Consider `O=C1NC(=S)N/C1=C/c1cc2ccc(-c3ccc4c(c3)CNC4=O)cc2[nH]1` [compound 208], for which the IC50 was found to be 1.58 µM.
On to `O=C1NC(=S)N/C1=C/c1cc2cc(-c3ccc4c(c3)CNC4=O)ccc2[nH]1` [compound 209], for which the IC50 stood at 2.5 µM.
The same measure, in the same setting: for `O=C1NC(=S)N/C1=C/c1cc2ccc(-c3ccc4c(c3)CCNC4=O)cc2[nH]1` [compound 210] the value was 1.66 µM.
Still for that read-out and setting: then `O=C1NC(=S)N/C1=C/c1cc2cc(-c3ccc4c(c3)CCNC4=O)ccc2[nH]1` [compound 211], with 1.45 µM; and `O=C1NC(=S)/C(=C/c2ccc3cc(-c4ccc5c(c4)CCNC5=O)ccc3n2)N1` [compound 212], with 2.55 µM.
